In ChEMBL document CHEMBL1201862, “PubChem BioAssay data set” (2004):
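Growth conditions: 96-well plates. Treatment: test compound, 48 hours, 5 concentrations. Analysis: linear interpolation between bracketing concentrations; unreached endpoints set to highest concentration. GI50 = concentration required for 50% inhibition of growth.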 The source made the active and inactive calls. Cut-off read from the data, not from the text of the source: active = GI50 up to about 1.1 µM and inactive = higher.

What was measured:
Experiment in all cases: NCI anticancer screen, dose series, 48 h
[1] = tested on: 786-0
[2] = tested on: A498
[3] = tested on: A549
[4] = tested on: ACHN
[5] = tested on: BT-549
[6] = tested on: CAKI-1
[7] = tested on: CCRF-CEM
[8] = tested on: COLO 205
[9] = tested on: DLD-1
[10] = tested on: DMS-114
[11] = tested on: DMS-273
[12] = tested on: DU-145
[13] = tested on: EKVX
[14] = tested on: HCC 2998
[15] = tested on: HCT-116
[16] = tested on: HCT-15
[17] = tested on: HL-60
[18] = tested on: HOP-18
[19] = tested on: HOP-62
[20] = tested on: HOP-92
[21] = tested on: HT-29
[22] = tested on: Hs-578T
[23] = tested on: IGROV-1
[24] = tested on: K562
[25] = tested on: KM-20L2
[26] = tested on: KM12
[27] = tested on: LOX IMVI
[28] = tested on: LXFL 529
[29] = tested on: M14
[30] = tested on: M19-MEL
[31] = tested on: MCF7
[32] = tested on: MDA-MB-231
[33] = tested on: MDA-MB-435
[34] = tested on: MDA-N
[35] = tested on: MOLT-4
[36] = tested on: Malme-3M
[37] = tested on: NCI-H226
[38] = tested on: NCI-H23
[39] = tested on: NCI-H460
[40] = tested on: NCI-H522
[41] = tested on: NCI/ADR-RES
[42] = tested on: OVCAR-3
[43] = tested on: OVCAR-4
[44] = tested on: OVCAR-5
[45] = tested on: OVCAR-8
[46] = tested on: PC-3
[47] = tested on: RPMI-8226
[48] = tested on: RXF 393
[49] = tested on: SF-268
[50] = tested on: SF-295
[51] = tested on: SF-539
[52] = tested on: SK-MEL-28
[53] = tested on: SK-MEL-2
[54] = tested on: SK-MEL-5
[55] = tested on: SK-OV-3
[56] = tested on: SN12C
[57] = tested on: SNB-19
[58] = tested on: SNB-75
[59] = tested on: SNB-78
[60] = tested on: SR
[61] = tested on: SW-620
[62] = tested on: T47D
[63] = tested on: TK-10
[64] = tested on: U-251
[65] = tested on: UACC-257
[66] = tested on: UACC-62
[67] = tested on: UO-31
[68] = tested on: XF498

BrC(Br)=C1C(=C(Br)Br)C(Br)C1Br (configuration not stated)
GI50 [1]: 0.163 µM (active)
GI50 [2]: 1.06 µM (active)
GI50 [3]: 0.796 µM (active)
GI50 [4]: 0.152 µM (active)
GI50 [5]: 0.327 µM (active)
GI50 [6]: 0.132 µM (active)
GI50 [7]: 0.0989 µM (active)
GI50 [8]: 0.849 µM (active)
GI50 [9]: 0.573 µM (active)
GI50 [10]: 0.256 µM (active)
GI50 [11]: 0.126 µM (active)
GI50 [12]: 0.106 µM (active)
GI50 [13]: 2.08 µM (inactive)
GI50 [14]: 0.142 µM (active)
GI50 [15]: 0.302 µM (active)
GI50 [16]: 0.301 µM
GI50 [17]: < 0.0125 µM (active)
GI50 [18]: 2.91 µM (inactive)
GI50 [19]: 1.02 µM (active)
GI50 [20]: 1.34 µM (inactive)
GI50 [21]: 0.362 µM (active)
GI50 [22]: 2.51 µM (inactive)
GI50 [23]: 0.628 µM (active)
GI50 [24]: 0.158 µM (active)
GI50 [25]: 1.38 µM (inactive)
GI50 [26]: 0.61 µM (active)
GI50 [27]: 0.0706 µM (active)
GI50 [28]: 0.439 µM (active)
GI50 [29]: 0.198 µM (active)
GI50 [30]: 0.63 µM (active)
GI50 [31]: 0.193 µM (active)
GI50 [32]: 1.12 µM (inactive)
GI50 [33]: 0.927 µM (active)
GI50 [34]: 0.368 µM (active)
GI50 [35]: 0.121 µM (active)
GI50 [36]: 0.418 µM (active)
GI50 [37]: 0.275 µM (active)
GI50 [38]: 0.284 µM (active)
GI50 [39]: 0.114 µM (active)
GI50 [40]: 0.139 µM (active)
GI50 [41]: 0.733 µM (active)
GI50 [42]: 0.794 µM (active)
GI50 [43]: 2.51 µM (inactive)
GI50 [44]: 1.69 µM (inactive)
GI50 [45]: 0.55 µM (active)
GI50 [46]: 1.62 µM (inactive)
GI50 [47]: 0.158 µM (active)
GI50 [48]: 0.226 µM (active)
GI50 [49]: 0.274 µM (active)
GI50 [50]: 0.778 µM (active)
GI50 [51]: 0.811 µM (active)
GI50 [52]: 1.1 µM (active)
GI50 [53]: 0.789 µM (active)
GI50 [54]: 0.826 µM (active)
GI50 [55]: 3.33 µM (inactive)
GI50 [56]: 0.716 µM (active)
GI50 [57]: 1.95 µM (inactive)
GI50 [58]: 1.69 µM (inactive)
GI50 [59]: 1.32 µM (inactive)
GI50 [60]: 0.043 µM (active)
GI50 [61]: 0.207 µM (active)
GI50 [62]: 1.76 µM (inactive)
GI50 [63]: 0.682 µM (active)
GI50 [64]: 0.65 µM (active)
GI50 [65]: 1.75 µM (inactive)
GI50 [66]: 0.429 µM (active)
GI50 [67]: 0.701 µM (active)

COc1cc(OC)c2c(=O)c3c([N+](=O)[O-])cccc3n(C)c2c1
GI50 [1]: > 100 µM (inactive)
GI50 [2]: > 100 µM (inactive)
GI50 [3]: > 100 µM (inactive)
GI50 [4]: > 100 µM (inactive)
GI50 [6]: > 100 µM (inactive)
GI50 [7]: > 100 µM (inactive)
GI50 [8]: > 100 µM (inactive)
GI50 [9]: > 100 µM (inactive)
GI50 [10]: > 100 µM (inactive)
GI50 [11]: > 100 µM (inactive)
GI50 [13]: > 100 µM (inactive)
GI50 [14]: > 100 µM (inactive)
GI50 [15]: > 100 µM (inactive)
GI50 [16]: > 100 µM
GI50 [17]: > 100 µM (inactive)
GI50 [18]: > 100 µM (inactive)
GI50 [19]: > 100 µM (inactive)
GI50 [20]: > 100 µM (inactive)
GI50 [21]: > 100 µM (inactive)
GI50 [23]: > 100 µM (inactive)
GI50 [24]: > 100 µM (inactive)
GI50 [25]: > 100 µM (inactive)
GI50 [26]: > 100 µM (inactive)
GI50 [27]: > 100 µM (inactive)
GI50 [28]: > 100 µM (inactive)
GI50 [29]: > 100 µM (inactive)
GI50 [30]: > 100 µM (inactive)
GI50 [35]: > 100 µM (inactive)
GI50 [36]: > 100 µM (inactive)
GI50 [37]: > 100 µM (inactive)
GI50 [38]: > 100 µM (inactive)
GI50 [39]: > 100 µM (inactive)
GI50 [40]: > 100 µM (inactive)
GI50 [42]: > 100 µM (inactive)
GI50 [43]: > 100 µM (inactive)
GI50 [44]: > 100 µM (inactive)
GI50 [45]: > 100 µM (inactive)
GI50 [47]: > 100 µM (inactive)
GI50 [48]: > 100 µM (inactive)
GI50 [49]: > 100 µM (inactive)
GI50 [50]: > 100 µM (inactive)
GI50 [51]: > 100 µM (inactive)
GI50 [52]: > 100 µM (inactive)
GI50 [53]: > 100 µM (inactive)
GI50 [54]: > 100 µM (inactive)
GI50 [55]: > 100 µM (inactive)
GI50 [56]: > 100 µM (inactive)
GI50 [57]: > 100 µM (inactive)
GI50 [58]: > 100 µM (inactive)
GI50 [59]: > 100 µM (inactive)
GI50 [60]: > 100 µM (inactive)
GI50 [61]: > 100 µM (inactive)
GI50 [63]: > 100 µM (inactive)
GI50 [64]: 94.8 µM (inactive)
GI50 [65]: > 100 µM (inactive)
GI50 [66]: > 100 µM (inactive)
GI50 [67]: > 100 µM (inactive)

N/C(=N/O)N/N=C\c1cc(Cl)cc(Cl)c1O
GI50 [2]: 6.38 µM (inactive)
GI50 [3]: 1.13 µM (inactive)
GI50 [6]: 1.09 µM (active)
GI50 [7]: 0.193 µM (active)
GI50 [8]: 5.7 µM (inactive)
GI50 [9]: 7.48 µM (inactive)
GI50 [11]: 0.347 µM (active)
GI50 [13]: 6.71 µM (inactive)
GI50 [14]: 2.31 µM (inactive)
GI50 [15]: 1.36 µM (inactive)
GI50 [16]: 2.02 µM
GI50 [17]: 0.0116 µM (active)
GI50 [18]: 10.7 µM (inactive)
GI50 [19]: 0.615 µM (active)
GI50 [20]: 7.26 µM (inactive)
GI50 [21]: 5.2 µM (inactive)
GI50 [23]: 6.97 µM (inactive)
GI50 [24]: 3.06 µM (inactive)
GI50 [25]: 5.57 µM (inactive)
GI50 [26]: 6.65 µM (inactive)
GI50 [27]: 0.918 µM (active)
GI50 [30]: 4.19 µM (inactive)
GI50 [31]: 0.428 µM (active)
GI50 [35]: 0.55 µM (active)
GI50 [36]: 4.86 µM (inactive)
GI50 [37]: 2.01 µM (inactive)
GI50 [38]: 1.54 µM (inactive)
GI50 [39]: 0.0705 µM (active)
GI50 [40]: 3.47 µM (inactive)
GI50 [41]: 1.32 µM (inactive)
GI50 [42]: 5.41 µM (inactive)
GI50 [43]: 8.04 µM (inactive)
GI50 [44]: 7.36 µM (inactive)
GI50 [45]: 2.38 µM (inactive)
GI50 [47]: 3.99 µM (inactive)
GI50 [48]: 5.05 µM (inactive)
GI50 [49]: 1.4 µM (inactive)
GI50 [50]: 0.791 µM (active)
GI50 [51]: 1.64 µM (inactive)
GI50 [52]: 14.1 µM (inactive)
GI50 [53]: 9.62 µM (inactive)
GI50 [54]: 3.3 µM (inactive)
GI50 [55]: 4.91 µM (inactive)
GI50 [56]: 1.62 µM (inactive)
GI50 [57]: 2.27 µM (inactive)
GI50 [58]: 1.03 µM (active)
GI50 [59]: 21.1 µM (inactive)
GI50 [61]: 3.97 µM (inactive)
GI50 [64]: 2.87 µM (inactive)
GI50 [65]: 4.34 µM (inactive)
GI50 [66]: 0.42 µM (active)
GI50 [67]: 4.25 µM (inactive)
GI50 [68]: 0.708 µM (active)
